Measurements from patent publication US4140849A, “Kanamycin C derivatives” (Zaidan Hojin Biseibutsu Kagaku Kenkyu Kai, priority 1977, dated 1979).
Values after ≈ are worked out from the molar mass of the structure shown. Like-named read-outs stand apart in the source and are kept apart here.

How the values were obtained:
6'-acetyltransferase = details: cited from earlier work; for acetylation by a 6'-acetyltransferase: enzyme obtained from aminoglycoside-resistant strains, such as Pseudomonas aeruginosa GN315
[1] = system: resistant bacteria producing the 2"-nucleotidyltransferase; details: prior compounds; cited from earlier work
[2] = system: resistant bacteria producing the aminoglycoside 6'-acetyltransferase; details: cited from earlier work
[3] = system: resistant bacteria producing aminoglycoside 3'-phosphotransferase; details: cited from earlier work
[4] = system: Escherichia coli JR 66/W677; test: Minimum inhibitory concentration, serial dilution on nutrient agar; type: cell-based; details: read-out: Minimum Inhibitory Concentrations
Method: (§1) The minimum inhibitory concentrations (mcg/ml.) of 1-N-(L-4-amino-2-hydroxybutyryl)-kanamycin C (abbreviated as AHB-KC), 1-N-(L-4-amino-2-hydroxybutyryl)-3'-deoxykanamycin C (abbreviated as AHB-DKC) and 1-N-(L-4-amino-2-hydroxybutyryl)-3',4'-dideoxykanamycin C (abbreviated as AHB-DDKC) against various microorganisms were determined according to serial dilution method on nutrient agar medium at 37° C., the estimation being effected after 18 hours incubation. For comparison, the minimum inhibitory concentrations of 1-N-(L-4-amino-2-hydroxybutyryl)-kanamycin A (amikacin) was also determined in the same manner as described above.

[5] = system: Escherichia coli K-12 ML 1630; test: as above; type: cell-based; details: K12ML1630, 37° C., 18 hours, read-out: Minimum Inhibitory Concentrations
Method: as §1

[6] = system: Pseudomonas aeruginosa TI-13; test: as above; type: cell-based; details: read-out: Minimum Inhibitory Concentrations
Method: as §1

Escherichia coli K-12 = test: as above; type: cell-based; details: K12, 37° C., 18 hours, read-out: Minimum Inhibitory Concentrations
Method: as §1

[7] = system: Pseudomonas aeruginosa GN 315; test: as above; type: cell-based; details: GN315, 37° C., 18 hours, read-out: Minimum Inhibitory Concentrations
Method: as §1

[8] = system: Pseudomonas aeruginosa A3; test: as above; type: cell-based; details: read-out: Minimum Inhibitory Concentrations
Method: as §1

[9] = system: Escherichia coli K-12 ML 1410 R81; test: as above; type: cell-based; details: 18 h, read-out: Minimum Inhibitory Concentrations
Method: as §1

[10] = system: Klebsiella pneumoniae 22 No. 3038; test: as above; type: cell-based; details: read-out: Minimum Inhibitory Concentrations
Method: as §1

Escherichia coli K-12 R5 = test: as above; type: cell-based; details: K12R5, 18 h, read-out: Minimum Inhibitory Concentrations
Method: as §1

[11] = system: Escherichia coli LA 290 R55; test: as above; type: cell-based; details: LA290R55, 18 h, read-out: Minimum Inhibitory Concentrations
Method: as §1

[12] = system: Klebsiella pneumoniae PCI 602; test: as above; type: cell-based; details: PCI602, 37° C., 18 hours, read-out: Minimum Inhibitory Concentrations
Method: as §1

[13] = system: Escherichia coli K-12 ML 1410; test: as above; type: cell-based; details: K12ML1410, 37° C., 18 hours, read-out: Minimum Inhibitory Concentrations
Method: as §1

[14] = system: Pseudomonas aeruginosa H 11; test: as above; type: cell-based; details: H11, 37° C., 18 hours, read-out: Minimum Inhibitory Concentrations
Method: as §1

Escherichia coli W 677 = test: as above; type: cell-based; details: W677, 37° C., 18 hours, read-out: Minimum Inhibitory Concentrations
Method: as §1

[15] = system: Pseudomonas aeruginosa No. 12; test: as above; type: cell-based; details: read-out: Minimum Inhibitory Concentrations
Method: as §1

[16] = system: Escherichia coli K-12 ML 1629; test: as above; type: cell-based; details: K12ML1629, 37° C., 18 hours, read-out: Minimum Inhibitory Concentrations
Method: as §1

[17] = system: Pseudomonas aeruginosa 99; test: as above; type: cell-based; details: 37° C., 18 hours, read-out: Minimum Inhibitory Concentrations
Method: as §1

Escherichia coli NIHJ = test: as above; type: cell-based; details: 37° C., 18 hours, read-out: Minimum Inhibitory Concentrations
Method: as §1

[18] = system: Escherichia coli LA 290 R64; test: as above; type: cell-based; details: LA290R64, 18 h, read-out: Minimum Inhibitory Concentrations
Method: as §1

[19] = system: Escherichia coli LA 290 R56; test: as above; type: cell-based; details: LA290R56, 18 h, read-out: Minimum Inhibitory Concentrations
Method: as §1

[20] = system: Mycobacterium smegmatis ATCC 607; test: as above; type: cell-based; details: Mycolicibacterium smegmatis, ATCC607, 37° C., 18 hours, read-out: Minimum Inhibitory Concentrations
Method: as §1

[21] = system: Staphylococcus aureus FDA 209P; test: as above; type: cell-based; details: FDA209P, 37° C., 18 hours, read-out: Minimum Inhibitory Concentrations
Method: as §1

[22] = LD50 upon intravenous injection in mice; details: mouse, in vivo, estimated
[23] = JR66/W677, Escherichia coli JR 66/W677, nutrient agar, 37° C., 18 hours
[24] = TI13, Pseudomonas aeruginosa TI-13, nutrient agar, 37° C., 18 hours
[25] = Pseudomonas aeruginosa A3, nutrient agar, 37° C., 18 hours
[26] = Klebsiella pneumoniae 22 No. 3038, nutrient agar, 37° C., 18 hours
[27] = Pseudomonas aeruginosa No. 12, nutrient agar, 37° C., 18 hours

Row | Compound | growth inhibition of resistant bacteria producing the 2"-nucleotidyltransferase [1] | MIC [4, 23] | MIC [5] | MIC [6, 24] | MIC (Escherichia coli K-12) | MIC [7] | MIC [9] | MIC (Escherichia coli K-12 R5) | MIC [11] | MIC [12] | MIC [13] | MIC [14] | MIC (Escherichia coli W 677) | MIC [16] | MIC [17] | MIC (Escherichia coli NIHJ) | MIC [18] | MIC [19] | MIC [20] | MIC [21] | other results
1 | NCCC(O)C(=O)NC1CC(N)C(OC2OC(CN)C(O)C(O)C2N)C(O)C1OC1OC(CO)C(O)C(N)C1O [1-N-(L-4-amino-2-hydroxybutyryl)-kanamycin B] | – | – | – | – | – | – | – | – | – | – | – | – | – | – | – | – | – | – | – | – | acetylation by a 6'-acetyltransferase (6'-acetyltransferase): acetylated
2 | NC1CCC(CO)OC1OC1C(N)CC(N)C(OC2OC(CO)C(O)C(N)C2O)C1O (stereo not drawn) [3',4 '-dideoxykanamycin C, 3',4'-dideoxykanamycin C] | not able to inhibit the growth | – | – | – | – | – | – | – | – | – | – | – | – | – | – | – | – | – | – | – | –
3 | NCC1CCC(N)C(OC2C(N)CC(N)C(OC3OC(CO)C(O)C(N)C3O)C2O)O1 (stereo not drawn) [3',4'-dideoxykanamycin B] | do not inhibit the growth | – | – | – | – | – | – | – | – | – | – | – | – | – | – | – | – | – | – | – | growth inhibition of resistant bacteria producing the aminoglycoside 6'-acetyltransferase [2]: do not inhibit the growth; activity against resistant bacteria producing aminoglycoside 3'-phosphotransferase [3]: active against the resistant bacteria
4 | NCC1OC(OC2C(N)CC(N)C(OC3OC(CO)C(O)C(N)C3O)C2O)C(N)CC1O (stereo not drawn) [3'-deoxykanamycin B] | do not inhibit the growth | – | – | – | – | – | – | – | – | – | – | – | – | – | – | – | – | – | – | – | growth inhibition of resistant bacteria producing the aminoglycoside 6'-acetyltransferase [2]: do not inhibit the growth; activity against resistant bacteria producing aminoglycoside 3'-phosphotransferase [3]: active against the resistant bacteria
5 | NC1CC(O)C(CO)OC1OC1C(N)CC(N)C(OC2OC(CO)C(O)C(N)C2O)C1O (stereo not drawn) [3'-deoxykanamycin C] | not able to inhibit the growth | – | – | – | – | – | – | – | – | – | – | – | – | – | – | – | – | – | – | – | –
6 | NCCC(O)C(=O)NC1CC(N)C(OC2OC(CO)CCC2N)C(O)C1OC1OC(CO)C(O)C(N)C1O [AHB-DDKC, 1-N-(L-4-amino-2-hydroxybutyryl)-3',4'-dideoxykanamycin C] | – | 25 µg/mL (≈ 45.2 µM) | 12.5 µg/mL (≈ 22.6 µM) | 100 µg/mL (≈ 181 µM) | 12.5 µg/mL (≈ 22.6 µM) | 100 µg/mL (≈ 181 µM) | 25 µg/mL (≈ 45.2 µM) | 12.5 µg/mL (≈ 22.6 µM) | 12.5 µg/mL (≈ 22.6 µM) | 6.25 µg/mL (≈ 11.3 µM) | 25 µg/mL (≈ 45.2 µM) | 100 µg/mL (≈ 181 µM) | 12.5 µg/mL (≈ 22.6 µM) | 6.25 µg/mL (≈ 11.3 µM) | 100 µg/mL (≈ 181 µM) | 12.5 µg/mL (≈ 22.6 µM) | 12.5 µg/mL (≈ 22.6 µM) | 6.25 µg/mL (≈ 11.3 µM) | 6.25 µg/mL (≈ 11.3 µM) | 12.5 µg/mL (≈ 22.6 µM) | MIC [8, 25]: 12.5 µg/mL (≈ 22.6 µM); MIC [10, 26]: 25 µg/mL (≈ 45.2 µM); MIC [15, 27]: 100 µg/mL (≈ 181 µM)
7 | NCCC(O)C(=O)NC1CC(N)C(OC2OC(CO)C(O)CC2N)C(O)C1OC1OC(CO)C(O)C(N)C1O [AHB-DKC, 1-N-(L-4-amino-2-hydroxybutyryl)-3'-deoxykanamycin C] | – | 12.5 µg/mL (≈ 21.9 µM) | 12.5 µg/mL (≈ 21.9 µM) | 50 µg/mL (≈ 87.8 µM) | 6.25 µg/mL (≈ 11 µM) | 50 µg/mL (≈ 87.8 µM) | 12.5 µg/mL (≈ 21.9 µM) | 6.25 µg/mL (≈ 11 µM) | 12.5 µg/mL (≈ 21.9 µM) | 3.13 µg/mL (≈ 5.49 µM) | 6.25 µg/mL (≈ 11 µM) | 50 µg/mL (≈ 87.8 µM) | 6.25 µg/mL (≈ 11 µM) | 6.25 µg/mL (≈ 11 µM) | 100 µg/mL (≈ 176 µM) | 6.25 µg/mL (≈ 11 µM) | 3.13 µg/mL (≈ 5.49 µM) | 6.25 µg/mL (≈ 11 µM) | 12.5 µg/mL (≈ 21.9 µM) | 6.25 µg/mL (≈ 11 µM) | LD50 [22]: > 400 mg/kg; MIC [8, 25]: 6.25 µg/mL (≈ 11 µM); MIC [10, 26]: 6.25 µg/mL (≈ 11 µM); MIC [15, 27]: 50 µg/mL (≈ 87.8 µM)
8 | NCCC(O)C(=O)NC1CC(N)C(OC2OC(CO)C(O)C(O)C2N)C(O)C1OC1OC(CO)C(O)C(N)C1O [AHB-KC, 1-N-(L-4-amino-2-hydroxybutyryl)-kanamycin C] | – | 25 µg/mL (≈ 42.7 µM) | 12.5 µg/mL (≈ 21.3 µM) | 50 µg/mL (≈ 85.4 µM) | 12.5 µg/mL (≈ 21.3 µM) | 50 µg/mL (≈ 85.4 µM) | 12.5 µg/mL (≈ 21.3 µM) | 6.25 µg/mL (≈ 10.7 µM) | 12.5 µg/mL (≈ 21.3 µM) | 3.13 µg/mL (≈ 5.34 µM) | 25 µg/mL (≈ 42.7 µM) | 100 µg/mL (≈ 171 µM) | 12.5 µg/mL (≈ 21.3 µM) | 6.25 µg/mL (≈ 10.7 µM) | 100 µg/mL (≈ 171 µM) | 6.25 µg/mL (≈ 10.7 µM) | 12.5 µg/mL (≈ 21.3 µM) | 6.25 µg/mL (≈ 10.7 µM) | 3.13 µg/mL (≈ 5.34 µM) | 6.25 µg/mL (≈ 10.7 µM) | LD50 [22]: > 400 mg/kg; MIC [8, 25]: 12.5 µg/mL (≈ 21.3 µM); MIC [10, 26]: 12.5 µg/mL (≈ 21.3 µM); MIC [15, 27]: 50 µg/mL (≈ 85.4 µM)
9 | NCC[C@H](O)C(=O)N[C@@H]1C[C@H](N)[C@@H](O[C@H]2O[C@H](CN)[C@@H](O)[C@H](O)[C@H]2O)[C@H](O)[C@H]1O[C@H]1O[C@H](CO)[C@@H](O)[C@H](N)[C@H]1O [Amikacin, 1-N-(L-4-amino-2-hydroxybutyryl)-kanamycin A, reference compound] | – | – | 0.78 µg/mL (≈ 1.33 µM) | – | 0.78 µg/mL (≈ 1.33 µM) | 100 µg/mL (≈ 171 µM) | 1.56 µg/mL (≈ 2.66 µM) | 0.39 µg/mL (≈ 0.666 µM) | 0.78 µg/mL (≈ 1.33 µM) | 0.39 µg/mL (≈ 0.666 µM) | 0.78 µg/mL (≈ 1.33 µM) | 12.5 µg/mL (≈ 21.3 µM) | < 0.2 µg/mL | 0.78 µg/mL (≈ 1.33 µM) | 6.25 µg/mL (≈ 10.7 µM) | 0.78 µg/mL (≈ 1.33 µM) | 0.39 µg/mL (≈ 0.666 µM) | 0.39 µg/mL (≈ 0.666 µM) | < 0.2 µg/mL | 0.39 µg/mL (≈ 0.666 µM) | acetylation by a 6'-acetyltransferase (6'-acetyltransferase): acetylated; MIC ([4]; Escherichia coli, JR66/W677, 18 h): 1.56 µg/mL (≈ 2.66 µM); MIC ([6]; Pseudomonas aeruginosa, TI13, 18 h): 3.13 µg/mL (≈ 5.34 µM); MIC ([8]; Pseudomonas aeruginosa, A3, 18 h): 3.13 µg/mL (≈ 5.34 µM); MIC ([10]; Klebsiella pneumoniae, 22NO.3038, 18 h): 1.56 µg/mL (≈ 2.66 µM); MIC ([15]; Pseudomonas aeruginosa, NO.12, 18 h): 3.13 µg/mL (≈ 5.34 µM)
10 | NC1CC(N)C(OC2OC(CO)C(O)C(N)C2O)C(O)C1OC1OC(CO)C(O)C(O)C1N (stereo not drawn) [kanamycin C] | not able to inhibit the growth | – | – | – | – | – | – | – | – | – | – | – | – | – | – | – | – | – | – | – | inactivation by the 6'-acetyltransferase (6'-acetyltransferase; see co-pending applications): cannot be inactivated
